# Columns and labels:
# [1] = Paclitaxel loading (solubilisation) by CD polymers or CD monomers; format: physicochemical
# Method: Preparation of Paclitaxel Complexes with CD Polymers or CD Monomers
# (A) Co-dissolving Method: This Method is Suitable for all Complexes with Water Soluble Polymers
# The aqueous solution of polymer (or monomer controls) (usually about 100 mg/ml) was mixed with equal volume (usually 40 to 2000 ul) of the paclitaxel solution (Cpaclitael=0.1 to 8.0 mg/ml in methanol). The mixture was incubated at room temperature for about half an hour. Then the solvents were removed in a centrifuge concentrator at room temperature. The concentrated syrup or wax solid was reconstituted by adding water or PBS buffer to the original volume. The mixture was usually a clear or slightly cloudy solution after 30 minutes of reconstitution. The un-dissolved paclitaxel particles were removed either by ultra-filtration (0.2 um filter) or by centrifugation (20 minutes at 20,800 g and room temperature). The paclitaxel concentration in the clear supernatant was quantified by UV absorbance at […] by using the corresponding cyclodextrin polymer solution as the background calibration.
# (B) Dialysis Method: This Method is Suitable for the Preparation of all Paclitaxel/polymer Complex Solutions:
# The methanol solution of the polymer (usually […]) was mixed with equal volume (100 ul) of paclitaxel solution (1 to 3 mg/ml in methanol). The clear mixture was incubated at room temperature for about half an hour at room temperature, followed by dialysis (MWCO=12,000) overnight against 2 L water. The dialysis solution was usually a clear solution. Trace amounts of paclitaxel particles were removed either by ultra-filtration (0.2 um filter) or by centrifugation (20 minutes at 20,800 g and room temperature). The clear solution was stored at 4° C. or below.
# human red blood cells = experiment: Hemolysis on fresh human blood cells; format: cell-based; conditions: for Hemolysis (HC50, mM): human red blood cells, 30 minutes at 37° C., 0 to 50 mg/ml in PBS
# Method: To further investigate the cytotoxicity of our polymers and their possible biodegradation products, their hemolysis effects were tested on fresh human blood cells in comparison with commercial CD monomers as describe below. The degree of hemolysis was reported as a percentage of the total efflux of hemoglobin in distilled water (Table 6)
# 1. Red blood cells were isolated from whole human blood by centrifugation at 1000 g for 10 minutes.
# 2. The plasma was removed and the red blood cells re-suspended in normal buffed saline (PBS, 0.154 M sodium chloride and 0.01 M phosphate, pH=7.4). The red blood cells were pelleted by centrifugation (1000 g for 10 minutes).
# 3. Step 2 was repeated twice to remove the heme released from damaged cells.
# 4. The final pellet was diluted with PBS to give a hematocrit of approximately 12 (or 5%) as determined by centrifugal sedimentation.
# 5.2 ml of polymer or cyclodextrin solutions of a series of concentrations from 0 to 50 mg/ml in PBS buffer) equilibrated at 37° C. in PBS buffer were equilibrated at 37° C. To this was added 100 ul of a red blood cell suspension followed by mixing of the sample with gentle inversion. The samples were incubated for 30 minutes at 37° C.
# 6. The intact cells and cellular debris were pelleted by centrifugation at 1000 g for 5 min. The supernatant was analyzed spectrophotometrically at 543 nm for released heme.
# [2] = at 50% CD concentrations; cited from earlier work
# [3] = Stability of Taxol/CD complexes in 50% fetal bovine serum; format: physicochemical; conditions: paclitaxel complex, 50% Serum, room temperature
# Method: (§1) Stability of Taxol/CD Complexes in 50% Serum or After 10 Fold Dilution in PBS:
# (§2) • (A) Stability in 50% fetal bovine serum: Taxol/PEG-L8-AcCD (2.0 mg/50 mg in 1.0 ml PBS buffer) or Taxol/DMCD (0.5 mg/50 mg in PBS buffer) complex solutions were prepared as describe in method A of example 7. Fifty micro liters of the complex solutions were diluted with equal volume of fetal bovine serum respectively. Both mixtures were centrifuged at […] at room temperature after incubation at room temperature for 2 hours, 21 hours, 49 hours and 144 hours, respectively. The Taxol concentration in each supernatant was quantified by measuring the UV absorption at 230 nm. • (B) Stability after 10 fold dilution with PBS: Taxol/PEG-L8-AcCD (2.0 mg/50 mg in 1.0 ml PBS buffer) or Taxol/DMCD (0.5 mg/50 mg in PBS buffer) complex solutions were prepared as describe in example 10. Fifty micro liters of the complex solutions were diluted with 450 micro liter of PBS buffer, respectively. Both mixtures were centrifuged at […] at room temperature after incubated room temperature for 2 hours, 21 hours, 49 hours and 144 hours. The Taxol concentration in each supernatant was quantified by measuring the UV absorption at 230 nm.
# [4] = Stability of Taxol/CD complexes after 10 fold dilution with PBS; format: physicochemical; conditions: paclitaxel complex, 10X PBS, room temperature
# Method: as §1, §2
# [5] = Drug amount in 1.0 ml water or PBS in the presence of 50 mg of polymer or other CD derivatives
compound,measurement,setting,value
hydoxylpropyl β-cyclodextrin [HP-CD],Paclitaxel loading (mg/50 mg polymer),[1]; [5],<0.05 mg/50 mg polymer
same,"Hemolysis (HC50, mM)",human red blood cells,35 mM
same,paclitaxel dissolved,[2],about 0.7 mg/ml
"OC[C@H]1O[C@@H]2O[C@H]3[C@H](O)[C@@H](O)[C@@H](O[C@H]4[C@H](O)[C@@H](O)[C@@H](O[C@H]5[C@H](O)[C@@H](O)[C@@H](O[C@H]6[C@H](O)[C@@H](O)[C@@H](O[C@H]7[C@H](O)[C@@H](O)[C@@H](O[C@H]8[C@H](O)[C@@H](O)[C@@H](O[C@H]1[C@H](O)[C@H]2O)O[C@@H]8CO)O[C@@H]7CO)O[C@@H]6CO)O[C@@H]5CO)O[C@@H]4CO)O[C@@H]3CO [βCD, β-cyclodextrin]","Hemolysis (HC50, mM)",human red blood cells,4.0 mM
"Mono-6-(8-amino-3,6-dioxy-octylamino)-6-deoxy-β-cyclodextrin [CD-L8-NH2]",toxicity compared with natural β-cyclodextrin,human red blood cells,much less toxic
same,"Hemolysis (HC50, mM)",human red blood cells,25 mM
methyl-β-cyclodextrin [DM-CD],Paclitaxel loading (mg/50 mg polymer),"[1]; at day 1, drug amount in 1.0 ml water or PBS in the presence of 50 mg of CD derivative",˜0.2 (at day 1) mg/50 mg polymer
same,Remaining paclitaxel % in diluted solution,[3]; 0 hour,100%
same,Remaining paclitaxel % in diluted solution,[3]; 2 hour,100%
same,Remaining paclitaxel % in diluted solution,[3]; 21 hour,100%
same,Remaining paclitaxel % in diluted solution,[3]; 49 hour,100%
same,Remaining paclitaxel % in diluted solution,[3]; 144 hour,100%
same,Remaining paclitaxel % in diluted solution,[4]; 0 hour,100%
same,Remaining paclitaxel % in diluted solution,[4]; 2 hour,86%
same,Remaining paclitaxel % in diluted solution,[4]; 21 hour,13%
same,"Hemolysis (HC50, mM)",human red blood cells,1.0 mM
same,paclitaxel dissolved,[2],~33 mg/mL
sulfobutylether-β-cyclodextrin [(SBE)7-CD],Paclitaxel loading (mg/50 mg polymer),[1]; [5],<0.05 mg/50 mg polymer

# From patent US7141540B2, “Cyclodextrin grafted biocompatible amphilphilic polymer and methods of preparation and use thereof” (Genta Salus LLC, priority 2001, dated 2006)
